We go through three molecules from US20070218462A1, “Method of Predicting a Benefit of Antioxidant Therapy for Prevention of Cardiovascular Disease in Hiperglycemic Patients” (priority 2003, published 2007).

The test system of test [1] is unselected samples or Diabetic patients. The experiment in a line: CVD outcomes and Vitamin C supplementation (data not shown). The format is in vivo, human.
In test [2] the test system is patients at high risk of cardiovascular events. The experiment in a line: HOPE study: relative risk of primary CV outcomes with vitamin E or ramipril, by haptoglobin phenotype. The format is in vivo, human. The text has this: HOPE study and patient characteristics: The Heart Outcomes Prevention Evaluation (HOPE) study was designed to test the hypotheses that two preventive intervention strategies, namely angiotensin-converting enzyme (ACE) inhibition or vitamin E, would improve morbidity and mortality in patients at high risk of cardiovascular events compared with placebo. Patients were included in the study who were considered to be at high risk of future fatal or non-fatal cardiovascular events, by virtue of their age (>55 years), existing or previous cardiovascular disease, or diabetes. Diabetics had at least one other risk factor, either known vascular disease or other factors such as cigarette smoking, high cholesterol or hypertension. Ramipril or placebo was added to concomitant medication, which included, in a substantial proportion of patients, antihypertensive drugs (excluding ACE-I), lipid-lowering agents or aspirin. The HOPE study design and protocols have been previously described in detail (see, for example, The Heart Outcomes Prevention Evaluation Study Investigators NE J Med, 2000; 342:154-60 and […] Angioten Aldost Sys 2000;1:18-20). Briefly, the study population consisted over 9,451 patients at high risk of CVD (3,654 DM). […] Patients were followed for a mean of 4.5 years. The primary study outcome was the composite of non-fatal MI, stroke or cardiovascular death. For samples from the HOPE Study, haptoglobin phenotyping was performed from 10 ul of plasma by polyacrylamide gel electrophoresis according to established methods (Hochberg I et al Atherosclerosis 2002;161:441-446). A signature banding pattern is obtained from individuals who are homozygous for the 1 allele (Hp 1-1), homozygous for the 2 allele (Hp 2-2) or who are heterozygous at the haptoglobin locus (Hp 2-1). We have established 100% concordance between the haptoglobin phenotype as determined from plasma and the haptoglobin genotype as determined from genomic DNA by the polymerase chain reaction (Koch W, et al Clin Chem 2002; 277:13635-40). An unambiguous haptoglobin phenotype was obtained on greater than 99.6% of all samples assayed. Haptoglobin phenotyping was performed with no knowledge of the patients clinical or treatment status. All analyses of the HOPE Study data were carried out using SAS 6.02. Baseline characteristics of patients according to haptoglobin were compared by t tests or χ^2 tests as appropriate. […] Patient characteristics of HOPE samples undergoing haptoglobin phenotyping: Haptoglobin phenotype was obtained on 3176 patients (1078 diabetics) from the origianl HOPE cohort for whom plasma was originally archived. These patients represented a randomly selected consecutive series of cohort according to CVD risk factors and treatment regimen is shown in Table 4 below.

Test [3] shares this test system. The conditions noted are these: daily administration of 400 IU for 4.5 years; original HOPE study report; cited from earlier work.
[4] abbreviates: All patients, Hp 1-1, with vitamin E vs without vitamin E.
[5] abbreviates: All patients, Hp 2-1, with vitamin E vs without vitamin E.
[6] abbreviates: All patients, Hp 2-2, with vitamin E vs without vitamin E.
The mark [7] stands for this setting: DM Patients only, Hp 1-1, with vitamin E vs without vitamin E.
Setting [8] is: DM Patients only, Hp 2-1, with vitamin E vs without vitamin E.
The mark [9] stands for this setting: DM Patients only, Hp 2-2, with vitamin E vs without vitamin E.
Setting [10] is: entire sample, regardless of haptoglobin type.
Setting [11] is: All patients, Hp 1-1, with ramipril vs without ramipril.
[12] abbreviates: All patients, Hp 2-1, with ramipril vs without ramipril.
Setting [13] is: All patients, Hp 2-2, with ramipril vs without ramipril.
The mark [14] stands for this setting: DM Patients only, Hp 1-1, with ramipril vs without ramipril.
[15] abbreviates: DM Patients only, Hp 2-1, with ramipril vs without ramipril.
Where [16] appears, read: DM Patients only, Hp 2-2, with ramipril vs without ramipril.

“Also recorded” adds a separate entry of the source.

Consider `O=C1O[C@H]([C@@H](O)CO)C(O)=C1O` [Vitamin C], for which, in test [1], the “correlation between CVD outcomes and Vitamin C supplementation” value is “no correlation could be found”.
Take `CC(=O)Oc1c(C)c(C)c2c(c1C)CC[C@@](C)(CCC[C@H](C)CCC[C@H](C)CCCC(C)C)O2` [Vitamin E, RRR-a-tocophorol acetate]: the “Relative Risk Ratio, CV death (95% CI)” value in test [2] (setting [4]) was 1.10 (0.56-2.12); in test [2] (setting [5]), 1.07 (0.69-1.64); in test [2] (setting [6]), 0.75 (0.48-1.16); in test [2] (setting [7]), 0.64 (0.21-1.92); in test [2] (setting [8]), 1.0 (0.53-1.93); in test [2] (setting [9]), 0.45 (0.23-0.90). The “Relative Risk Ratio, MI (95% CI)” value in test [2] (setting [4]) is listed as 0.79 (0.47-1.33); in test [2] (setting [5]), 1.02 (0.75-1.38); in test [2] (setting [6]) it was 0.94 (0.68-1.30); in test [2] (setting [7]), 0.83 (0.33-2.06); in test [2] (setting [8]), 0.99 (0.45-2.18); in test [2] (setting [9]), 0.57 (0.33-0.97). The “Relative Risk Ratio, Primary (95% CI)” value in test [2] (setting [4]) is 0.97 (0.63-1.50); in test [2] (setting [5]), 0.96 (0.74-1.25); in test [2] (setting [6]), 0.92 (0.69-1.22); in test [2] (setting [7]) it was 0.84 (0.40-1.79); in test [2] (setting [8]), 1.08 (0.72-1.61); in test [2] (setting [9]) it was 0.70 (0.45-1.10). Besides, the “Relative Risk Ratio, Stroke (95% CI)” value in test [2] (setting [4]) is given as 1.50 (0.56-4.04); in test [2] (setting [5]) it was 0.92 (0.53-1.60); in test [2] (setting [6]) it was 0.85 (0.46-1.57); in test [2] (setting [7]), 2.24 (0.41-12.4); in test [2] (setting [8]), 0.99 (0.45-2.18); in test [2] (setting [9]) it was 1.15 (0.47-2.82). In test [2] (DM patients, other haptoglobin phenotypes (Hp 1-1 and Hp 2-1)), the “benefit of vitamin E therapy for any of the primary CV outcomes” value was “no significant benefit”. Besides, the “benefit of vitamin E supplementation for any of the primary CV outcomes” value in test [2] (setting [10]) was “no significant benefit”. Further, the “benefit of vitamin E supplementation” value in test [2] (unselected DM group) is listed as “no significant benefit; also recorded: no apparent benefit”. The “clinical benefit on cardiovascular (CV) outcomes” value in test [3] is “failed to demonstrate any clinical benefit”.
For the molecule `CCOC(=O)[C@H](CCc1ccccc1)N[C@@H](C)C(=O)N1[C@H](C(=O)O)C[C@@H]2CCC[C@@H]21` [Ramipril, ramipril], the “Relative Risk Ratio, CV death (95% CI)” value in test [2] (setting [11]) is recorded as 0.58 (0.29-1.18); in test [2] (setting [12]), 1.02 (0.66-1.58); in test [2] (setting [13]) it was 0.87 (0.55-1.37); in test [2] (setting [14]), 0.42 (0.13-1.36); in test [2] (setting [15]) it was 0.97 (0.50-1.88); in test [2] (setting [16]) it was 0.56 (0.28-1.12). Further, the “Relative Risk Ratio, MI (95% CI)” value in test [2] (setting [11]) is recorded as 0.61 (0.35-1.06); in test [2] (setting [12]) it was 0.88 (0.64-1.20); in test [2] (setting [13]) it was 0.83 (0.59-1.17); in test [2] (setting [14]) it was 0.53 (0.19-1.46); in test [2] (setting [15]) it was 0.99 (0.81-2.13); in test [2] (setting [16]), 0.57 (0.38-1.12). The “Relative Risk Ratio, Primary (95% CI)” value is given as 0.74 (0.47-1.17) in test [2] (setting [11]); 0.81 (0.62-1.07) in test [2] (setting [12]); 0.76 (0.57-1.02) in test [2] (setting [13]); 0.78 (0.35-1.75) in test [2] (setting [14]); 0.97 (0.72-1.61) in test [2] (setting [15]); 0.57 (0.36-0.90) in test [2] (setting [16]). In addition, the “Relative Risk Ratio, Stroke (95% CI)” value was 0.91 (0.33-2.51) in test [2] (setting [11]); 0.68 (0.38-1.21) in test [2] (setting [12]); 0.53 (0.27-1.04) in test [2] (setting [13]); 1.29 (0.21-7.82) in test [2] (setting [14]); 0.58 (0.25-1.34) in test [2] (setting [15]); 0.42 (0.16-1.09) in test [2] (setting [16]). The “benefit of ramipril supplementation for any of the primary CV outcomes” value in test [2] (setting [10]) is on record as “no significant benefit”. Moreover, the “benefit to ramipril for any of the primary CV outcomes” value in test [2] (other haptoglobin phenotypes (Hp 1-1, Hp 1-2)) was “no benefit”. Also, the “benefit of ramipril supplementation” value in test [2] (unselected DM group) is given as “no significant benefit”.
